According to ChEMBL document CHEMBL1149979, “1,3-Dithian-2-ylidene and thiazolidin-2-ylidene derivatives as a novel class of antimycotic agents” (1997):
In brackets after ≈: the same amount, converted by molar mass.

How the values were obtained:
Aspergillus fumigatus = assay: In vitro minimum inhibitory concentration for antifungal activity against human pathogenic fungi Aspergillus fumigatus; type: functional
Cryptococcus neoformans = assay: In vitro minimum inhibitory concentration for antifungal activity against human pathogenic fungi Cryptococcus neoformans; type: functional
Candida albicans = assay: In vitro minimum inhibitory concentration for antifungal activity against human pathogenic fungi Candida albicans; type: functional
Sporothrix schenckii = assay: In vitro minimum inhibitory concentration for antifungal activity against human pathogenic fungi Sporothrix schenck ii; type: functional
Trichophyton benhamiae = assay: In vitro minimum inhibitory concentration for antifungal activity against human pathogenic fungi Trichophyton mentagrophytes; type: functional, Arthroderma benhamiae

Compound	MIC (Aspergillus fumigatus)	MIC (Cryptococcus neoformans)	MIC (Candida albicans)	MIC (Sporothrix schenckii)	MIC (Trichophyton benhamiae)
CC(=O)N1CCN(c2ccc(OC[C@H]3CO[C@](Cn4ccnc4)(c4ccc(Cl)cc4Cl)O3)cc2)CC1 [KETOCONAZOLE]	0.7 µg/mL (≈ 1.32 µM)	0.3 µg/mL (≈ 0.565 µM)	0.1 µg/mL (≈ 0.188 µM)	0.1 µg/mL (≈ 0.188 µM)	25 µg/mL (≈ 47 µM)
O=C(/C(=C1/SCCN1c1ccccc1)n1ccnc1)c1ccc(Cl)cc1	> 100 µg/mL	> 100 µg/mL	> 100 µg/mL	> 100 µg/mL	> 100 µg/mL
O=C(/C(=C1/SCCN1c1ccc(Cl)cc1)n1ccnc1)c1ccc(Cl)cc1	> 100 µg/mL	> 100 µg/mL	> 100 µg/mL	> 100 µg/mL	> 100 µg/mL
CCOC(=O)C(=C1SCCCS1)n1ccnc1	> 100 µg/mL	> 100 µg/mL	> 100 µg/mL	> 100 µg/mL	> 100 µg/mL
CC1CCS/C(=C(/C#N)n2cnc3ccccc32)S1 (stereo not given)	50 µg/mL (≈ 174 µM)	> 100 µg/mL	> 100 µg/mL	> 100 µg/mL	> 100 µg/mL

Other lines, results leading:

MIC (Aspergillus fumigatus)	MIC (Cryptococcus neoformans)	MIC (Candida albicans)	MIC (Sporothrix schenckii)	MIC (Trichophyton benhamiae)	Compound
25 µg/mL (≈ 113 µM)	> 100 µg/mL	> 100 µg/mL	> 100 µg/mL	25 µg/mL (≈ 113 µM)	CCN1CCS/C1=C(/C#N)n1ccnc1
12.5 µg/mL (≈ 56.5 µM)	> 100 µg/mL	> 100 µg/mL	> 100 µg/mL	12.5 µg/mL (≈ 56.5 µM)	CC1=CS/C(=C(/C#N)n2ccnc2)S1
25 µg/mL (≈ 107 µM)	> 100 µg/mL	> 100 µg/mL	> 100 µg/mL	50 µg/mL (≈ 213 µM)	CCN1/C(=C(\C#N)n2ccnc2)SCC1C (stereo not given)
0.19 µg/mL (≈ 0.8 µM)	> 100 µg/mL	50 µg/mL (≈ 211 µM)	> 100 µg/mL	3.12 µg/mL (≈ 13.1 µM)	CC1CCS/C(=C(/C#N)n2ccnc2)S1 (stereo not given)
3.1 µg/mL (≈ 13.9 µM)	> 100 µg/mL	100 µg/mL (≈ 448 µM)	> 100 µg/mL	25 µg/mL (≈ 112 µM)	N#CC(=C1SCCCS1)n1ccnc1
50 µg/mL (≈ 176 µM)	> 100 µg/mL	> 100 µg/mL	> 100 µg/mL	25 µg/mL (≈ 87.9 µM)	CCOC(=O)/C(=C1/SCCC(C)S1)n1ccnc1 (stereo not given)
12.5 µg/mL (≈ 37.1 µM)	> 100 µg/mL	> 100 µg/mL	> 100 µg/mL	12.5 µg/mL (≈ 37.1 µM)	O=C(C(=C1SCCCS1)n1ccnc1)c1ccc(Cl)cc1
